In data set [1] the test system is DAP. Put plainly: DAP protein level in transfected MIN6 cells by Western blot. Type of data set: cell-based, mouse. The following applies: 48 hours culture, Western blots. As for the experimental part:
(§1) The DAP gene was either knocked down with DAP RNAi construct or overexpressed by transient transfection of DAP-pCMV in MIN6 cells.
(§2) The full-length DAP construct or the control vector was transfected into MIN6 cells. After culturing for 48 hours, MIN6 cells and the culture media were harvested for measurement of DAP and Ang II levels. Higher expression level of DAP (2.1-fold±0.6) in DAP-pCMV-transfected MIN6 cells compared to that in the vector-transfected cells was detected by Western blots. Ang II levels in MIN6 cell lysates and the cultured media were measured after the transfection and compared to the control transfected cells. Ang II-specific ELISA kit (Cayman Chemical) was used for the measurements.
(§3) The cells were transfected with […] of Dnpep siRNA of SEQ ID NO. 13, non-silencing control siRNA, or a full-length of Dnpep cDNA (SEQ ID NO. 12) in pCMV-SPORT6 (Open Biosystems, Huntsville, Ala.) by electroporation (BioRad Laboratories, Berkeley, Calif.). A total of 1×10^5 of the cells was seeded into 6-well culture plates coated with poly-L-lysine and cultured for 24 h. The transfection efficiency was approximately 50 percent according to a co-transfected GFP marker.
After 48 hours culture, cells and culture media were collected. […]

The subject of data set [2] is Ang II levels in MIN6 cells. Kind of data set: Ang II levels in MIN6 cell lysates and cultured media by Ang II ELISA. Format: cell-based, mouse. As for the experimental part:
as §1, §2, §3
(§4) After 48 hours culture, cells and culture media were collected. Real-time PCR (RT-PCR) was conducted with the primers (Assay ID Details: Mm00497488_m1*) and the 7900HT Fast Real-Time PCR System (Applied Biosystems, Foster City, Calif.). Western blots were performed using the ECL Reagents (GE, Piscataway, N.J.).
Ang II levels were measured using the AssayMax Ang II ELISA Kit (Cayman Chemical, Ann Arbor, Mich.). Briefly, standards or samples were incubated in a 96-well plate with biotinylated anti-Ang II antibody for 2 h. After the washings, Streptavidin-Peroxidase Conjugate was added for 30 min. The final reaction was developed with the substrate chromogen and read at 450 nm by an ELISA reader. Ang II levels in the samples were calculated from an Ang II standard curve run with each assay. Values (mean±SEM) are from at least three independent experiments. ANOVA with Tukey's post hoc test was used for statistical analysis.
On the technique in general: ELISA stands for enzyme-linked immunosorbent assay.

Data set [3] deals with DAP mRNA. Kind of data set: DAP mRNA level in transfected MIN6 cells by RT-PCR. Format: cell-based, mouse. The following applies: 48 hours culture. On the procedure:
It was also investigated whether endogenous DAP levels affect the Ang II levels. Dnpep siRNA and control siRNA were purchased (Qiagen, Germantown, Md.). The target sequences were nucleotides 328-348 (SEQ ID NO. 11:
[…]) of mouse Dnpep cDNA (GenBank NM_001110831; SEQ ID NO. 12). MIN6 cells were maintained in DMEM, supplemented with 10% FCS, 10 mM glucose, 2 mmol/l glutamine, 100 U/ml penicillin, and 0.1 mg/ml streptomycin.
as §3, §4

The target of data set [4] is Angiotensin II (1-8). Put plainly: cell-based or functional assay.

For the substance “DAP RNAi: Dnpep siRNA (Qiagen, SEQ ID NO. 13) targeting nucleotides 328-348 of mouse Dnpep cDNA (AATGTGGCCTGGATGGCCTCT; listed as DNA, chemistry not given here; the letters are possibly those of the target site; listed as Mus musculus)”, the “DAP protein level decrease compared to control cells” value in data set [1] turned out to be 70%. The “Intracellular Ang II levels” value in data set [2] (MIN6 cell lysates, 48 hours after transfection, mean±SEM) is recorded as 50±6 pg/mg protein. The “Intracellular Ang II levels, increase compared to control cells” value in data set [2] (MIN6 cell lysates, 48 hours culture) is recorded as “up to 74%”. Moreover, in data set [2] (MIN6 culture media, 48 hours culture), the “Extracellular Ang II levels, increase compared to control cells” value was 57%. The “Extracellular Ang II levels” value in data set [2] (MIN6 cultured media, 48 hours after transfection, mean±SEM) was found to be 52±5.3 pg/mg protein. Also, in data set [3], the “Endogenous DAP mRNA level knocked down” value was 78%.
For “aspartyl aminopeptidase (DAP), mouse, gene product of Dnpep (from UniProt Q9Z2W0 1-473) (enzyme)”, in data set [4], the extracellular Ang II level in DAP RNAi-transfected MIN6 cells against control cells (Ang II ELISA) (percent increase) was 57, the extracellular Ang II level in DAP-transfected MIN6 cells against control cells (Ang II ELISA) (percent lower) turned out to be 35, the intracellular Ang II level in DAP RNAi-transfected MIN6 cells against control cells (Ang II ELISA) (percent increase) turned out to be 74 and the intracellular Ang II level in DAP-transfected MIN6 cells against vector-treated cells (Ang II ELISA) (percent lower) came to 28.

Values taken from patent US20120071544A1, “Methods For Identifying Compounds Effective To Increase The Expression Or Activity Of Aspartyl Aminopeptidase In Mammalian Pancreatic Islet Cells, And Methods For Decreasing Angiotensin II Levels In Mammalian Pancreatic Islet Cells” (priority 2010, published 2012).
